Source: patent publication US20040127435A1, “Uses for inhibitors of inosine monophosphate dehydrogenase” (REGENTS OF THE UNIVERSITY OF CALIFORNIA, priority 2002, published 2004)
“Also recorded” adds a separate entry of the source. Where two headings read alike, the source gives them in different places.

Columns and labels:
[1] = test system: MTAP-deleted chronic myelogenous leukemia cells (K562); assay: Cell proliferation of MTAP-deleted K562 cells by MTT dye assay; assay type: cell-based; details: read-out: IC50 (amount of drug needed to block proliferation by 50%)
Description: MTAP-deleted chronic myelogenous leukemia cells (K562) were pre-treated for the indicated times (24, 48, 72 hours) with concentrations of mizoribine (squares) or mizoribine base (triangles) from 200 μM to 0.5 μM. At the end of the incubation time cell proliferation was tested by the MTT dye assay. As indicated by FIG. 3, the IC50 (amount of drug needed to block proliferation by 50%) of mizoribine or its base progressively declines as the time of exposure to drug increases. After 48 hours of incubation with mizoribine or mizoribine base, the IC50 for the drug is approximately 100 micromolar. After 72 hours of incubation with mizoribine or mizoribine base, the IC50 for the drug is approximately 10 micromolar.

[2] = in vivo; cited from earlier work
CLL cells [3] = assay: CLL cell viability by MTT dye assay; assay type: cell-based; details: Homo sapiens, 24 h, read-out: cell viability
Description: Indanocine is commercially available from Calbiochem (Cat. No. 402080). Leoni L. M., et al., J Natl Cancer Inst. 92:217-224 (2000). Hua X. H., et al., Cancer Res. 61:7248-7254 (2001). CLL cells were isolated and cultured as described above. CLL cells at a density of 1×10^6 ml were incubated for 24 hours in RPMI 1640 medium supplemented with 10% fetal bovine serum in the presence of 1 μM indanocine (abbreviated 178) and either 0, 1, or 10 μM mizoribine. Cell viability was assessed by the MTT [3-(4,5-dimethylthiazol-2-yl)-2,5-diphenyltetrazolium bromide) dye assay.

[4] = test system: normal PBL (peripheral blood mononuclear cells); assay: α-tubulin polymerization assay in normal PBL (soluble vs particulate fraction, immunoblot); assay type: cell-based, human; details: normal resting PBL, paclitaxel for one hour
Description: (§1) Peripheral blood from CLL patients or normal donors was layered on top of Ficoll-Paque Plus (Pharmacia, NJ) and centrifuged at 1200×g for twenty minutes. The enriched peripheral blood mononuclear cells (PBL) were washed several times with Ca++, Mg++-free HBSS.
(§2) All primary cells were cultured in RPMI 1640 medium with 20% fetal bovine serum (regular medium) at a density of 2-5×10^6 cell/ml. In some cases, the PBL were stimulated for 24 hours with 1 μg/ml anti-CD3 and anti-CD28 antibodies (Alexis, San Diego, Calif.) prior to immunoblot analysis.
(§3) α-tubulin Polymerization Assay. For each data point, 2×10^6 of cells were incubated in 2 ml of regular medium containing drugs for various periods of time. The cells were then washed twice at room temperature, and resuspended in 50 μl of α-tubulin extraction buffer (1 mM MgC2, 2 m MEGTA, 0.5% NP-40, 20 mM Tris-HCl, pH=6.8) supplemented with 2 mM phenylmethysulfonyl fluoride, and a protease inhibitor cocktail (Sigma). After a brief but vigorous vortex, the lysates were incubated at room temperature for 5 minutes, and then centrifuged at 16,000×g for 5 minutes to separate the soluble from polymerized α-tubulin. The supernatant and pellet fractions were resolved on 10-20% pre-cast tris-glycine gels (Novex, San Diego, Calif.) and then subjected to immune blotting with a specific anti-α-tubulin antibody. […]

activated PBL = assay: α-tubulin polymerization assay in PBL activated with anti-CD3 and anti-CD28 antibodies; assay type: cell-based, human; details: PBL activated 24 hrs with anti-CD3 and anti-CD28, paclitaxel for one hour
Description: as §1, §2, §3

CLL cells [5] = assay: α-tubulin polymerization assay in CLL cells; assay type: cell-based, human; details: paclitaxel
Description: Lymphocyte Cultures. The Institutional Review Board of the University of California, San Diego approved this study, and all patients gave informed written consent to participation. Subjects had CLL according to National Cancer Institute (NCI) criteria of any Rai stage. None of the patients were in active chemotherapeutic treatments. Flow cytometric analysis determined that all specimens contained more than 90% CD5+CD19+B cells.
as §1, §2
α-tubulin Polymerization Assay. For each data point, 2×10^6 of cells were incubated in 2 ml of regular medium containing drugs for various periods of time. The cells were then washed twice at room temperature, and resuspended in 50 μl of α-tubulin extraction buffer (1 mM MgC2, 2 m MEGTA, 0.5% NP-40, 20 mM Tris-HCl, pH=6.8) supplemented with 2 mM phenylmethysulfonyl fluoride, and a protease inhibitor cocktail (Sigma). […]

[6] = test system: MTAP-deleted lung cancer cells (A549); assay: Cell proliferation of MTAP-deleted A549 cells by MTT assay, mizoribine base pre-treatment then L-alanosine; assay type: cell-based; details: Homo sapiens
Description: MTAP-deleted lung cancer cells (A549) were pre-treated for 24 hours with control vehicle (square), or the indicated concentrations of mizoribine-base (10 μM, 25 μM and 50 μM). After 24 hours in culture L-alanosine was added at decreasing concentrations (½ dilutions) starting at 40 μM. Cell were then incubated for an additional 48 hours. Cell proliferation was tested by the MTT assay. As indicated by FIG. 4, the IC50 and IC90 (amount of drug needed to block proliferation by 50% or 90%) of L-alanosine declines in the presence of mizoribine base.

[7] = A549, 48 h, A549, without mizoribine base, 48 hours L-alanosine
[8] = A549, A549, 24 hours pre-treatment with 10 micromolar mizoribine base
[9] = A549, A549, 24 hours pre-treatment with 25 micromolar mizoribine base
[10] = A549, A549, 24 hours pre-treatment with 50 micromolar mizoribine base

Question: With `NC(=O)c1ncn([C@@H]2O[C@H](CO)[C@@H](O)[C@H]2O)c1O` [mizoribine] as the compound, how does the IC50 ([1]; Homo sapiens, K562, 48 hours of incubation) read?
Answer: The IC50 was ~100 µM.

Question: And the IC50 ([1]; Homo sapiens, K562, 72 hours of incubation)?
Answer: Its IC50 is ~10 µM.

Question: And the plasma half life [2]?
Answer: The plasma half life was “a few hours”.

Question: What about the viability at 1 µM (CLL cells [3]) of the same compound?
Answer: Its viability at 1 µM is 55%.

Question: What about the viability at 10 µM (CLL cells [3]) of the same compound?
Answer: The viability at 10 µM was 45%.

Question: Which “α-tubulin in the particulate fraction after treatment” value (“α-tubulin in the particulate fraction” for short) [4] does the source give for `CC(=O)O[C@H]1C(=O)[C@@]2(C)[C@H]([C@H](OC(=O)c3ccccc3)[C@]3(O)C[C@H](OC(=O)[C@H](O)[C@@H](NC(=O)c4ccccc4)c4ccccc4)C(C)=C1C3(C)C)[C@]1(OC(C)=O)CO[C@@H]1C[C@@H]2O` [paclitaxel] here?
Answer: Its value is “only a minimal increase of α-tubulin in the particulate fraction; also recorded: did not change this pattern”.

Question: What about the “α-tubulin in the particulate fraction” value (activated PBL) of the same compound?
Answer: Its value is “most of the α-tubulin shifted to the particulate fraction; also recorded: a shift of α-tubulin to the particulate-bound fraction”.

Question: And the “α-tubulin in the particulate fraction” value (CLL cells [5])?
Answer: Its value is “nearly complete relocalization of α-tubulin to the particulate fraction”.

Question: Which IC50 ([1]; K562, 48 hours of incubation) does the source give for `NC(=O)c1[nH]cnc1O` [mizoribine base, mizoribine aglycone] here?
Answer: The IC50 was ~100 µM.

Question: What about the IC50 ([1]; K562, 72 hours of incubation) of the same compound?
Answer: Its IC50 is ~10 µM.

Question: With `COc1cc2c(c(N)c1OC)C(=O)/C(=C\c1cc(C)c(O)c(C)c1)C2` [indanocine] as the compound, how does the viability at 1 µM (CLL cells [3]) read?
Answer: Its viability at 1 µM is 24%.

Question: Which results are given for `N[C@@H](CN(O)N=O)C(=O)O` [L-alanosine]?
Answer: IC50 [6, 7]: 0.5 µM; IC90 [6, 7]: 20 µM; IC50 [6, 8]: 0.5 µM; IC90 [6, 8]: 9 µM; IC50 [6, 9]: 0.25 µM; IC90 [6, 9]: 6 µM; IC50 [6, 10]: 0.15 µM; IC90 [6, 10]: 4 µM
